Assay [1] has as its system human embryonic stem cells (H9, H7) on MATRIGEL
Description: Real-time PCR of definitive endoderm markers, DE protocol on […] or fibronectin (feeder-free). The format is cell-based. To be noted: for definitive endoderm markers (real-time PCR): H7 and H9, low serum+AA+/−Wnt ligands, 5 days. As to the method:
(§1) Real-time PCR amplification and quantitative analysis.
(§2) Final data were expressed relative to a calibrator sample.
Differentiation of embryonic stem cells to definitive endoderm was carried out as previously described in Nature Biotechnology 23, 1534-1541 (December 2005). […] In all subsequent examples unless otherwise noted, this treatment regimen will be referred to as the definite endoderm (DE) protocol. In parallel, H9, H7, or H1 cells cultured on MEF feeders were also exposed to the same DE protocol outlined above.
At day 5, the cultures were analyzed by FACS for CXCR4, E-cadherin, CD9, CD99, and N-cadherin (CD56) expression and by real time PCR for SOX-17, SOX-7, Alpha-fetal protein (AFP), CXCR4, Brychyury (Bry), gooscecoid (GSC), HNF-3 beta, and GATA4. AFP and SOX-7 are regarded as visceral endoderm markers while GATA4, HNF-3beta and SOX-17 represent definite endoderm markers and GSC, Bry, and CXCR4 represent markers of primitive streak.
In some of the cultures 20 ng/ml Wnt-3a (Catalog #1324-WN-002, R&D Systems, MN), 20 ng/ml Wnt-5a (Catalog #654-WN-010, R&D Systems, MN), 25 ng/ml Wnt-7a (Catalog #3008-WN-025, R&D Systems, MN), or 25 ng/ml Wnt-5b (Catalog #3006-WN-025, R&D Systems, MN) was added throughout the five day treatment. FIG. 24 depicts phase contrast images of H9P46 definitive endoderm culture in the presence of high concentration of (a) AA or (b) AA+20 ng/ml Wnt-3a. FIG. 25 depicts the expression of CXCR4 by FACS at day 5 for H7P44, and H9P46 lines cultured on […] (1:30 dilution) and exposed to the DE protocol+Wnt-3a (FIG. 25, panels b and d) and −Wnt-3a (FIG. 25, panels a and c).
Control cultures were not treated with Wnt-3a. FIG. 27, panel a depicts the expression of CXCR4 by FACS at day 5 in the absence of Wnt-3a, b) 10 ng/ml Wnt-3a, c) 20 ng/ml Wnt-3a and d) 50 ng/ml Wnt-3a. In the absence of Wnt-3a the expression of CXCR4 was very low. […] Real-time PCR results (FIG. 28, panel a) also confirm this finding.
In a separate study, H9 p52 cells were plated on 1:30 low growth factor […]™. For the first 2 days of the DE protocol a range of Wnt3A doses was used: 10 ng/ml, 5 ng/ml and 1 ng/ml. […] The number of cells at the end of the experiment is noted in FIG. 28, panel c.
In order to confirm that the effect of Wnt-3a was through the Wnt pathway, a GSK-3 inhibitor was used to activate the downstream targets of Wnt, such as beta catenin. […] FIG. 29, panel a depicts the expression of CXCR4 by FACS at day 5 in the absence of Wnt-3a or GSK-3B inhibitor, b) +20 ng/ml Wnt-3a, c) +1000 nM GSK-3B inhibitor IX, d) +500 nM GSK-3B inhibitor IX, e) +100 nM GSK-3B inhibitor IX, f) +10 nM GSK-3B inhibitor IX, g) +100 nM GSK-3B inhibitor IX for days 1-2, and h) +10 nM GSK-3B inhibitor IX for days 1-2.
FIG. 31 panels a-d is for H9P49 cells and panels e-f is for H1P46 cells.
Results are expressed as fold increase over untreated cells. […] Results are expressed as fold increase over untreated cells.
H9P55 cells were grown and differentiated on human fibronectin or regular growth factor […]™ (BD Biosciences). lml of DMEM/F12 (Invitrogen/GIBCO) containing 1 ug/ml of human fibronectin (R&D systems, MN) was added to each well of 6 well tissue culture treated dish. Alternatively, regular growth factor […]™ was diluted 1:10 in DMEM/F12 and 1 ml of diluted […]™ was added to each well of 6 well tissue culture treated dish. Cells were passed with collagenase. […] Real-time PCR results (FIG. 39) confirm that formation of definitive endoderm was equivalent on fibronectin and […]™ coated plates.
To determine if the addition of Wnt-3a was causing the increase in differentiation, an inhibitor of Wnt-3 signaling was added to the cultures. […] H9 cells were cultured on plates coated with Growth Factor Reduced […] at a 1:30 dilution. The plates were coated with […] for 1 hr at room temperature. […]
For orientation: Quantitative PCR measures a nucleic acid by following its amplification.

For another assay, the system named is H9P44 cells. The assay is described as follows: RT-PCR of definitive endoderm markers, growth factor combinations in low serum on MEFs (Example 22). The format is cell-based, human. To be noted: H9P44 on MEF; Day 3; normalized to Group 1 (control). On the procedure: as §1, §2
H9P44 cells were plated onto 6 well plates previously coated with mitomycin treated mouse embryonic fibroblasts (MEF). Cells were grown until 70 to 80% confluency in ES cell medium consisting of DMEM/F12 (Invitrogen/GIBCO) supplemented with 20% knockout serum replacement, 100 nM MEM nonessential amino acids, 0.5 mM beta-mercaptoethanol, 2 mM L-glutamine (all from Invitrogen/GIBCO) and 8 ng/ml human basic fibroblast growth factor (bFGF) (R&D Systems).
Growth factors were added to increasing concentration of FBS in a stepwise manner as indicated in the following regimen: • Day 0: 0% FBS in DMEM/F12 • Day 1: 0.5% FBS in DMEM/F12 • Day 2: 2% FBS in DMEM/F12. • Day 3: Cells were harvested for FACS analysis and RT-PCR.
All growth factors were purchased from R&D Systems, MN. A detailed description and concentration of growth factors for each treatment group is shown below.
For RT-PCR analysis, cells were analyzed for expression of selected panel of definitive endoderm markers.

The test system of assay [2] is human embryonic stem cell line H9. Description: Real-time PCR of marker gene expression, H9 on MEF (Examples 2-7). The format is cell-based. As to the method:
Cells were harvested at the time points indicated in FIG. 3 and assayed by PCR for the expression of genes shown (FIGS. 3, 4 and 5).
After this time interval, the cells were then treated for six days with combinations of retinoic acid and FGF as outlined in Example 2, then the culture medium was removed and replaced with medium comprising DMEM/F12 with 2% FBS, containing the γ-secretase inhibitors L-685,458 at 10 μM for three days.
Cells were continuously cultured for another 3 to 5 days in basal medium with retinoic acid at 1 μM, alone or with bFGF. RNA samples were harvested from cells at various time points along this process to help evaluate the directed differentiation of the cells. Furthermore, culture medium and factors were regularly removed and replenished throughout the differentiation protocol.
RNA extraction, purification, and cDNA synthesis. RNA samples were purified by binding to a silica-gel membrane (Rneasy Mini Kit, Qiagen, CA) in the presence of an ethanol-containing, high-salt buffer followed by washing to remove contaminants. The RNA was further purified using a TURBO DNA-free kit (Ambion, INC), and high-quality RNA was then eluted in water. Yield and purity were assessed by A260 and A280 readings on a spectrophotometer. cDNA copies were made from purified RNA using an ABI (ABI, CA) high capacity cDNA archive kit.
as §1, §2

For fibronectin, the “formation of definitive endoderm (real-time PCR)” value in assay [1] (H9P55, fibronectin vs MATRIGEL coated plates) is “equivalent”.

In the case of Group 9: IL-4 (10 ng/ml), in the assay with H9P44 cells, the CXCR4 relative expression amounted to 1.4, the Goosecoid relative expression is recorded as 0.9, the HNF-3B relative expression is 0.89 and the Oct-4 relative expression came to 0.85. In addition, in the assay with H9P44 cells, the SOX-2 relative expression is recorded as 1.2 and the Sox17 relative expression is 1.

In the case of `CC(C)C[C@H](NC(=O)[C@H](Cc1ccccc1)C[C@@H](O)[C@H](Cc1ccccc1)NC(=O)OC(C)(C)C)C(=O)N[C@@H](Cc1ccccc1)C(N)=O` [L-685,458, reference compound], in assay [2] (L-685,458 10 μM for three days), the NeuroD1 expression result is given as “increased further”, the “expression of Ngn3 versus activin A alone or retinoic acid with FGFs” value is “approximately 50 fold” and the “increase of insulin expression” value is 70 fold. Besides, the “expression of Hes-1” value in assay [2] (L-685,458 10 μM, maximal inhibition on day three) is on record as “decrease”.

B1: Wnt-7a: Wnt ligand (Catalog #3008-WN-025, R&D Systems, MN) (protein, UniProt O00755 32-349, looked up)
Protein Wnt-7a: LGASIICNKIPGLAPRQRAICQSRPDAIIVIGEGSQMGLDECQFQFRNGRWNCSALGERTVFGKELKVGSREAAFTYAIIAAGVAHAITAACTQGNLSDCGCDKEKQGQYHRDEGWKWGGCSADIRYGIGFAKVFVDAREIKQNARTLMNLHNNEAGRKILEENMKLECKCHGVSGSCTTKTCWTTLPQFRELGYVLKDKYNEAVHVEPVRASRNKRPTFLKIKKPLSYRKPMDTDLVYIEKSPNYCEEDPVTGSVGTQGRACNKTAPQASGCDLMCCGRGYNTHQYARVWQCNCKFHWCCYVKCNTCSERTEMYTCK
B1: the “definitive endoderm markers (real-time PCR)” value (from here on “definitive endoderm markers”) in assay [1] is on record as “minimal impact”.

B2: DKK1: Wnt Inhibitor; inhibitor of Wnt-3 signaling (protein, UniProt O94907 32-266, looked up)
Dickkopf-related protein 1: TLNSVLNSNAIKNLPPPLGGAAGHPGSAVSAAPGILYPGGNKYQTIDNYQPYPCAEDEECGTDEYCASPTRGGDAGVQICLACRKRRKRCMRHAMCCPGNYCKNGICVSSDQNHFRGEIEETITESFGNDHSTLDGYSRRTTLSSKMYHTKGQEGSVCLRSSDCASGLCCARHFWSKICKPVLKEGQVCTKHRRKGSHGLEIFQRCYCGEGLSCRIQKDHHQASNSSRLHTCQRH
For B2, the “expression level of differentiation markers (CXCR4, GATA4, HNF-3beta, SOX17, goosecoid)” value in assay [1] (H9, 100 ng/ml DKK1 with 20 ng/ml Wnt3a and 100 ng/ml activin A, day 5) was “dramatically decrease”.

B3: Wnt-5a: Wnt ligand (Catalog #654-WN-010, R&D Systems, MN) (protein, UniProt P41221 62-380, looked up)
Protein Wnt-5a: IIGAQPLCSQLAGLSQGQKKLCHLYQDHMQYIGEGAKTGIKECQYQFRHRRWNCSTVDNTSVFGRVMQIGSRETAFTYAVSAAGVVNAMSRACREGELSTCGCSRAARPKDLPRDWLWGGCGDNIDYGYRFAKEFVDARERERIHAKGSYESARILMNLHNNEAGRRTVYNLADVACKCHGVSGSCSLKTCWLQLADFRKVGDALKEKYDSAAAMRLNSRGKLVQVNSRFNSPTTQDLVYIDPSPDYCVRNESTGSLGTQGRLCNKTSEGMDGCELMCCGRGYDQFKTVQTERCHCKFHWCCYVKCKKCTEIVDQFVCK
Regarding B3, the “definitive endoderm markers” value in assay [1] is listed as “minimal impact”.

B4: BMP-4: BMP-4 (Catalog #314-BP-010, R&D Systems, MN) (protein, UniProt P12644 293-408, looked up)
Bone morphogenetic protein 4: SPKHHSQRARKKNKNCRRHSLYVDFSDVGWNDWIVAPPGYQAFYCHGDCPFPLADHLNSTNHAIVQTLVNSVNSSIPKACCVPTELSAISMLYLDEYDKVVLKNYQEMVVEGCGCR
As to B4, in assay [1] (H9P53, BMP-4 25 ng/ml added to the DE protocol), the “mesoderm marker BRY” value is recorded as “induce formation”.

B5: Wnt-5b: Wnt ligand (Catalog #3006-WN-025, R&D Systems, MN) (protein, UniProt Q9H1J7 18-359, looked up)
Protein Wnt-5b: QLLTDANSWWSLALNPVQRPEMFIIGAQPVCSQLPGLSPGQRKLCQLYQEHMAYIGEGAKTGIKECQHQFRQRRWNCSTADNASVFGRVMQIGSRETAFTHAVSAAGVVNAISRACREGELSTCGCSRTARPKDLPRDWLWGGCGDNVEYGYRFAKEFVDAREREKNFAKGSEEQGRVLMNLQNNEAGRRAVYKMADVACKCHGVSGSCSLKTCWLQLAEFRKVGDRLKEKYDSAAAMRVTRKGRLELVNSRFTQPTPEDLVYVDPSPDYCLRNESTGSLGTQGRLCNKTSEGMDGCELMCCGRGYNQFKSVQVERCHCKFHWCCFVRCKKCTEIVDQYICK
As for B5, the “definitive endoderm markers” value in assay [1] is “minimal impact”.

(Values after patent publication US20100255580A1, “Differentiation of Human Embryonic Stem Cells” (LIFESCCAN, INC., priority 2007, published 2010).)
